In ChEMBL document CHEMBL1123446, “Amino-substituted p-benzoquinones” (1986):

What was measured:
[1] = species: Homo sapiens; experiment: In vitro significant inhibitory activity against human colon […]; assay type: functional; settings: read-out: ID50 (the source's name)
[2] = tested on: L1210; experiment: In vitro significant inhibitory activity against L1210 leukemia cell lines; assay type: functional; settings: Mus musculus, read-out: ID50 (the source's name)

Row | IC50 [1] | IC50 [2] | Compound
1 | 140 nM |  | CN(C)Cc1ccc(NC2=C(Br)C(=O)C(Nc3ccc(CN(C)C)cc3)=C(Br)C2=O)cc1
2 | 100 nM | 37 nM | CN(C)Cc1ccc(NC2=C(Cl)C(=O)C(Nc3ccc(CN(C)C)cc3)=C(Cl)C2=O)cc1
3 | 80 nM |  | CO[C@H](C(=O)[C@@H](O)[C@@H](C)O)[C@@H]1Cc2cc3cc(O[C@H]4C[C@@H](O[C@@H]5C[C@@H](O)[C@H](O)[C@@H](C)O5)[C@H](O)[C@@H](C)O4)c(C)c(O)c3c(O)c2C(=O)[C@H]1O[C@H]1C[C@@H](O[C@@H]2C[C@@H](O)[C@@H](O[C@@H]3C[C@](C)(O)[C@H](O)[C@@H](C)O3)[C@@H](C)O2)[C@H](O)[C@@H](C)O1 [PLICAMYCIN]
